System: GABAA receptors
Assay: Influence on the binding of muscimol to GABAA receptors (rat brain)
Settings: 5 nM [3H] muscimol, cerebral rat cortex membranes
Procedure: The following tests for determining the influence of allopregnanolone, 3-α-OH-CMA and 3-β-OH-CMA on the binding of muscimol to GABAA receptors (in rats) are based on the publication of the experimental specifications of Snodgrass, S. R. (Nature, 1979, V273, p. 392-394). The corresponding disclosure is included herein as a reference and is part of the disclosure of the present application.
Membrane preparations of cerebral rat cortex material were prepared. 5 nM [^3H] muscimol was used as a reference substance and 10 μM muscimol was used to determine the nonspecific binding. The substances ([^3H] muscimol, allopregnanolone) were each incubated at the receptor for 10 minutes at a temperature of approximately 4° C. The stock solution (5×10^−2 M) of allopregnanolone was prediluted in 75% DMSO at a ratio of 1:10 and was subsequently further diluted in 25% DMSO at a ratio of 1:5. The final concentration of allopregnanolone in the test was 1×10^−10 M, 1×10^−9 M, 1×10^−8 M, 1×10^−7 M, 1×10^−6 M and 1×10^−5 M respectively. The washing steps and the determination of radioactivity were carried out as previously described under point 1.
The influence of 3-α-OH-CMA and 3-β-OH-CMA on the binding of muscimol to GABAA receptors (in rats) was determined in a similar manner to the method described previously. Instead of allopregnanolone, 3-α-OH-CMA or 3-β-OH-CMA were used.

Q: For `CC(=O)[C@H]1CC[C@H]2[C@@H]3CC[C@H]4C[C@H](O)CC[C@]4(C)[C@H]3CC[C@]12C` [allopregnanolone, reference compound], which “increase of binding of radioactively labelled muscimol” value (“increase” for short) (1 μM test substance) is on record?
A: 38%

Q: How did the “increase” value (0.001 μM test substance) turn out when `CC(=O)O[C@]1(C(C)=O)CC[C@H]2[C@@H]3C=C(Cl)C4=C[C@H](O)CC[C@]4(C)[C@H]3CC[C@@]21C` [3-α-OH-CMA, 3α-hydroxy-6-chloro-17α-acetoxy-4,6-pregnadien-20-one] was run?
A: 12%

Q: Which “increase” value (0.1 μM test substance) does the source give for `CC(=O)O[C@]1(C(C)=O)CC[C@H]2[C@@H]3C=C(Cl)C4=C[C@@H](O)CC[C@]4(C)[C@H]3CC[C@@]21C` [3-β-OH-CMA, 3β-hydroxy-6-chloro-17α-acetoxy-4,6-pregnadien-20-one] here?
A: 31%
